# Reference: patent publication US10106571B2, “HCV polymerase inhibitors” (priority 2013, dated 2018)
# pEC50: −log10 of the molar value. Where two headings read alike, the source gives them in different places.
# Columns and labels:
# Type in all cases: cell-based
# [1] = test system: HCV type 1b replicon (Huh-7 luc/neo, Huh-Luc); test: Replicon assay, Huh-Luc cells with HCV type 1b replicon (stable), luciferase readout
# Source text: The compounds of formula I may be examined for activity in the inhibition of HCV RNA replication in a cellular assay aimed at identifying compounds that inhibit a HCV functional cellular replicating cell line, also known as HCV replicons. A suitable cellular assay is based on a bicistronic expression construct, as described by Lohmann et al. (1999), Science vol. 285 pp. 110-113 with modifications described by Krieger et al. (2001), Journal of Virology 75: 4614-4624, in a multi-target screening strategy.
# The assay utilizes the stably transfected cell line Huh-7 luc/neo (hereafter referred to as Huh-Luc). This cell line harbors an RNA encoding a bicistronic expression construct comprising the wild type NS3-NS5B regions of HCV type 1b translated from an Internal Ribosome Entry Site (IRES) from encephalomyocarditis virus (EMCV), preceded by a reporter portion (FfL-luciferase), and a selectable marker portion (neo^R, neomycine phosphotransferase). The construct is bordered by 5′ and 3′ NTRs (non-translated regions) from HCV type 1b. Continued culture of the replicon cells in the presence of G418 (neo^R) is dependent on the replication of the HCV RNA. The stably transfected replicon cells that express HCV RNA, which replicates autonomously and to high levels, encoding inter alia luciferase, are used for screening the antiviral compounds.
# The replicon cells are plated in 384 well plates in the presence of the test and control compounds which are added in various concentrations. Following an incubation of three days, HCV replication is measured by assaying luciferase activity (using standard luciferase assay substrates and reagents and a Perkin Elmer ViewLux™ ultraHTS microplate imager). Replicon cells in the control cultures have high luciferase expression in the absence of any inhibitor. The inhibitory activity of a compound on luciferase activity is monitored on the Huh-Luc cells, enabling a dose-response curve for each test compound. EC50 values are then calculated, which value represents the amount of the compound required to decrease the level of detected luciferase activity by 50%, or more specifically, the ability of the genetically linked HCV replicon RNA to replicate.
# HCV GT3a = test: Genotype 3a transient replicon assay (Kylefjord et al.); conditions: Hepatitis C virus
# Source text: (§1) The antiviral activity of commercially available sofosbuvir and the compound of Example 2 were compared in a genotype 3a transient replicon assay described in Kylefjord et al., J Virol. Methods 2014 195:156-63.
# (§2) The compound of Example 2 was further evaluated to assess the antiviral activity against genotypes 1-6 of HCV, both wild type and a number of clinically relevant mutant strains. The result of the evaluation together with the average EC50 of the genotypes and the corresponding values for sofosbuvir are summarised in Tables 2 and 3.
# HCV GT3a S282T = test: Genotype 3a transient replicon bearing the S282T mutation; conditions: for pEC50: Hepatitis C virus; for FC vs WT, HCV GT3a* S282T: fold change of EC50 vs wild type
# Procedure: as §1
# (§3) Similarly, the L159F/L320F double mutant generated by exposure to the nucleoside mericitabine and conferring cross resistance to sofosbuvir (Tong et al 2013 J. Infect. Dis., 209 (5), 668-75) was prepared in a genotype 3a transient replicon as described above in Kylefjord et al. ibid.
# as §2
# HCV GT3a L159F/L320F = test: Genotype 3a transient replicon, L159F/L320F double mutant; conditions: for pEC50: Hepatitis C virus; for FC vs WT, HCV GT3a* L159F/L320F: fold change of EC50 vs wild type
# Procedure: as §3, §2
# HCV GT1b (transient) = HCV GT1b (transient) replicon; conditions: Hepatitis C virus, read-out: EC50 HCV GT1b (transient)
# Source text: as §2
# HCV GT1a = HCV GT1a chimeric replicon; conditions: Hepatitis C virus, read-out: EC50 HCV GT1a*
# Source text: as §2
# HCV GT2a replicon = test: HCV GT2a replicon; conditions: Hepatitis C virus, read-out: EC50 HCV GT2a replicon
# Source text: as §2
# HCV GT2a virus = test: HCV GT2a virus; conditions: Hepatitis C virus, wild type, geometric mean
# Source text: as §2
# HCV GT4a = HCV GT4a chimeric replicon; conditions: Hepatitis C virus, read-out: EC50 HCV GT4a*
# Source text: as §2
# HCV GT5a = HCV GT5a chimeric replicon; conditions: Hepatitis C virus, read-out: EC50 HCV GT5a*
# Source text: as §2
# HCV GT6a = HCV GT6a chimeric replicon; conditions: Hepatitis C virus, read-out: EC50 HCV GT6a*
# Source text: as §2
# [2] = test system: genotypes 1-6 of HCV, wild type; test: Average over wild type HCV genotype assays (Table 2); conditions: for pEC50: Hepatitis C virus, arithmetic mean +/- SEM; for potency increase vs sofosbuvir: from AVG EC50
# Source text: as §2
# HCV GT1b S282T = HCV GT1b S282T mutant replicon; conditions: for pEC50: Hepatitis C virus, GT1B, read-out: EC50 HCV GT1b S282T; for FC vs WT, HCV GT1b S282T: fold change of EC50 vs wild type
# Source text: as §2
# HCV GT1b L159F/L320F = HCV GT1b L159F/L320F mutant replicon; conditions: for pEC50: Hepatitis C virus, GT1B, read-out: EC50 HCV GT1b L159F/L320F; for FC vs WT, HCV GT1b L159F/L320F: fold change of EC50 vs wild type
# Source text: as §2
# HCV GT1a S282T = HCV GT1a S282T chimeric mutant replicon; conditions: for pEC50: Hepatitis C virus, GT1A, read-out: EC50 HCV GT1a* S282T; for FC vs WT, HCV GT1a* S282T: fold change of EC50 vs wild type
# Source text: as §2
# HCV mutant strains = test: Average over HCV mutant assays (Table 3); conditions: for pEC50: Hepatitis C virus, read-out: AVG EC50; for potency increase vs sofosbuvir: mutant assays, from AVG EC50
# Source text: as §2
# [3] = Hepatitis C virus, GT1B, Huh-7, wild type, geometric mean, read-out: EC50 HCV GT1b (stable)
# [4] = read-out: EC50 against genotype 3a
# [5] = GT3A, read-out: EC50 HCV GT3a* S282T
# [6] = read-out: EC50, genotype 3a S282T
# [7] = GT3A, read-out: EC50 HCV GT3a* L159F/L320F
# [8] = read-out: EC50, genotype 3a L159F/L320F double mutant
SMILES,"pEC50 [1, 3]","pEC50 (HCV GT3a; GT3A, read-out: EC50 HCV GT3a*)",pEC50 (HCV GT3a; [4]),pEC50 (HCV GT3a S282T; [5]),pEC50 (HCV GT3a S282T; [6]),"FC vs WT, HCV GT3a* S282T (HCV GT3a S282T)",pEC50 (HCV GT3a L159F/L320F; [7]),pEC50 (HCV GT3a L159F/L320F; [8]),"FC vs WT, HCV GT3a* L159F/L320F (HCV GT3a L159F/L320F)",pEC50 (HCV GT1b (transient)),pEC50 (HCV GT1a),pEC50 (HCV GT2a replicon),pEC50 (HCV GT2a virus),pEC50 (HCV GT4a),pEC50 (HCV GT5a),pEC50 (HCV GT6a),pEC50 [2],potency increase vs sofosbuvir [2],pEC50 (HCV GT1b S282T),"FC vs WT, HCV GT1b S282T (HCV GT1b S282T)",also measured
"CC(C)OC(=O)[C@H](C)N[P@](=O)(OC[C@H]1O[C@@H](n2ccc(=O)[nH]c2=O)[C@](C)(F)[C@@H]1O)Oc1ccccc1 [sofosbuvir, reference compound]",7.01,6.89,6.64,6.28,6.32,4.0,6.72,6.72,1.5,7.09,6.88,7.32,7.27,6.66,6.94,6.75,6.93,1.0,6.13,8.8,"pEC50 (HCV GT1b L159F/L320F): 6.70; FC vs WT, HCV GT1b L159F/L320F (HCV GT1b L159F/L320F): 2.5; pEC50 (HCV GT1a S282T): 6.00; FC vs WT, HCV GT1a* S282T (HCV GT1a S282T): 7.7; pEC50 (HCV mutant strains): 6.27; potency increase vs sofosbuvir (HCV mutant strains): 1.0"
"CC(C)OC(=O)[C@H](C)NP(=O)(OC[C@H]1O[C@@H](n2ccc(=O)[nH]c2=O)[C@@](F)(Cl)[C@@H]1O)Oc1ccccc1 (stereo partly drawn) [Example 2, (2S)-isopropyl 2-(((((2R,3R,4S,5R)-4-chloro-5-(2,4-dioxo-3,4-dihydropyrimidin-1(2H)-yl)-4-fluoro-3-hydroxytetrahydrofuran-2-yl)methoxy)(phenoxy)phosphoryl)amino)propanoate]",7.35,7.34,7.14,6.91,6.89,2.7,7.21,7.21,1.3,7.36,7.30,7.64,7.77,7.23,7.36,7.24,7.37,2.7,6.53,6.8,"pEC50 ([1]; Huh-Luc HCV 1b replicon, three days incubation, luciferase activity, read-out: EC50): 7.26; pEC50 (HCV GT1b L159F/L320F): 7.15; FC vs WT, HCV GT1b L159F/L320F (HCV GT1b L159F/L320F): 1.6; pEC50 (HCV GT1a S282T): 6.52; FC vs WT, HCV GT1a* S282T (HCV GT1a S282T): 6.0; pEC50 (HCV mutant strains): 6.77; potency increase vs sofosbuvir (HCV mutant strains): 3.1"
